From patent publication US20100249243A1, “NOVEL BETA-HYDROXYKETONES AND BETA-ALKOXYKETONES WITH ESTROGENIC ACTIVITY” (priority 2007, published 2010)
Read-outs that look alike come from different tables or passages of the source.

Columns and labels:
ERα [1] = target: T1, ERα (Homo sapiens, UniProt P03372); experiment: ERα luciferase reporter (pERE2TATA-LUC) transactivation assay in transfected HEK293 cells; assay type: cell-based; set-up: expressed in transfected cells; host or cells: HEK293; conditions: 24 hours; for ERα receptor activation relative to 10 nM E2 corresponding 100: Table 1, sample concentration 10 μM, mean of at least three independent transfections, SEM typically <15%; for ERα in vitro activity (receptor activation relative to 10 nM E2): Table 2, previously published compounds, test compound 10 μM
T1 sequence (P03372 1-595): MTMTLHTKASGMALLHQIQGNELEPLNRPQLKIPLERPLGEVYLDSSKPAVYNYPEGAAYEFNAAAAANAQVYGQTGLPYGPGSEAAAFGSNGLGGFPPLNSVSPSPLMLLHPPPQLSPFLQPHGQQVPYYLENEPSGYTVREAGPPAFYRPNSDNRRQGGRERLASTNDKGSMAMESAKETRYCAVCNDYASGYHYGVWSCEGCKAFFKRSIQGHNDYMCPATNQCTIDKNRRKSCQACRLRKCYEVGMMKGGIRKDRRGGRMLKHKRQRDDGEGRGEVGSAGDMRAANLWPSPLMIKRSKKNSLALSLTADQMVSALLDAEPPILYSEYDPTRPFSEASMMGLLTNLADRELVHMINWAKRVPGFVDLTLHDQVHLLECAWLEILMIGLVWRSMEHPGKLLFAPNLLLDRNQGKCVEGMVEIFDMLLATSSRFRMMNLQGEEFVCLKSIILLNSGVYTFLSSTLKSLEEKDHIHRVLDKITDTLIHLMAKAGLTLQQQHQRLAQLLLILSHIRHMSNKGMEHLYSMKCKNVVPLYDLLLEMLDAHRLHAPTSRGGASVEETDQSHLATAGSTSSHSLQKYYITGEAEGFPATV
Experimental: (§1) All other reagents were of reagent grade from Sigma or Fluka. One day before transfection, HEK293 cells were seeded in 48-well plates (70×10^3 cells per well) in phenol-free Dulbecco's modified Eagle medium supplemented with 5% delipidated fetal bovine serum (Sigma) and antibiotics. After a medium change, the cells were transfected for 4 hours with 5 ng ERα or ERβ expression vector, 75 ng reporter plasmid pERE2TATA-LUC and 20 ng control plasmid pCMVβ by the calcium phosphate method. After transfection, the cells received fresh medium containing either vehicle (0.1% v/v) or test compound (10 μM). After 24 hours, the cells were washed, lysed and luciferase and β-galactosidase activities were determined from 20 μl of lysates with the Victor^2TM reader (PerkinElmer Wallac, Turku, Finland). […] The data are means±SEM of at least three independent transfections.

ERβ [2] = target: T2, ERβ (Homo sapiens, UniProt Q92731); experiment: ERβ luciferase reporter (pERE2TATA-LUC) transactivation assay in transfected HEK293 cells; assay type: cell-based; set-up: expressed in transfected cells; host or cells: HEK293; conditions: for Emax at 10 µM: HEK293, 24 h; for ERβ in vitro activity (receptor activation relative to 10 nM E2): Table 2, previously published compounds, test compound 10 μM
Experimental: as §1

ERα [3] = target: T1, ERα; experiment: Competitive binding assay against [6,7-3H(N)]estradiol in transiently transfected COS-1 cells, ERα; conditions: for IC50: ERα IC50 (median inhibition concentration), competition against labeled E2, COS-1 cells with pSG5-hERα, 2 hours at 37° C.; for ERα RBA (relative binding affinity): in comparison to E2 = 100
Experimental: (§2) Relative binding affinities (RBA) were measured by a competitive assay against [6, 7-^3H(N)]estradiol (PerkinElmer) in transsiently transfected COS-1 cells. […] After 2 hours of incubation at 37° C. the medium was removed. The cells were removed from the wells to 150 μl of 1× phosphate buffered saline (PBS), transferred to Eppendorf tubes and centrifuged at 4° C. using 4000 g for 5 min, and then washed twice with 150 μl of PBS. The cell pellets were dissolved to 50 μl of 0.5M NaOH and incubated for 15 min at 56° C., after which the samples were transferred to liquid twinkle tubes and treated with 3 ml of OptiPhase HiSafe 3 twinkle solution (PerkinElmer).

ERβ [4] = target: T2, ERβ; experiment: Competitive binding assay against [6,7-3H(N)]estradiol in transiently transfected COS-1 cells, ERβ; conditions: for IC50: ERβ IC50 (median inhibition concentration), competition against labeled E2, COS-1 cells with pSG5-hERβ, 2 hours at 37° C.; for ERβ RBA (relative binding affinity): in comparison to E2 = 100
Experimental: as §2

[5] = read-out: ERβ receptor activation relative to 10 nM E2 corresponding 100, Table 1, sample concentration 10 μM, mean of at least three independent transfections, SEM typically <15%
[6] = read-out: ERβ in vitro activity (receptor activation relative to 10 nM E2), Table 2, previously published compounds, test compound 10 μM

T2 sequence (Q92731 whole entry): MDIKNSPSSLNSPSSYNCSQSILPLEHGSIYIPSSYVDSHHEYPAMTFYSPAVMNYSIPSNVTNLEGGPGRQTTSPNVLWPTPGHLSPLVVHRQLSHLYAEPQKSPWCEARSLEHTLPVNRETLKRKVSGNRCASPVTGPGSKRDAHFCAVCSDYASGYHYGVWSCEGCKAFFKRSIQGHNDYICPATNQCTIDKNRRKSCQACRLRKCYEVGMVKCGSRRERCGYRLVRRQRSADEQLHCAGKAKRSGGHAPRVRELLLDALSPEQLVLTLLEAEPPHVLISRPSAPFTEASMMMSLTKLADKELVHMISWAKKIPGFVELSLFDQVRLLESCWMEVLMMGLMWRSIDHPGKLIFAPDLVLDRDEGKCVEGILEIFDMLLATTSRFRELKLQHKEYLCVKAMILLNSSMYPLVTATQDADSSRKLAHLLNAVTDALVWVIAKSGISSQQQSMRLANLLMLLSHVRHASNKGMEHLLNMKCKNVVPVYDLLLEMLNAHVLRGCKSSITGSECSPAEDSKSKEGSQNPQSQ

| ERα receptor activation relative to 10 nM E2 corresponding 100 (ERα [1]) | Emax at 10 µM (ERβ [2]; [5]) | IC50 (ERα [3]) | ERα RBA (relative binding affinity) (ERα [3]) | IC50 (ERβ [4]) | ERβ RBA (relative binding affinity) (ERβ [4]) | ERα in vitro activity (receptor activation relative to 10 nM E2) (ERα [1]) | Emax at 10 µM (ERβ [2]; [6]) | other results | Compound |
| --- | --- | --- | --- | --- | --- | --- | --- | --- | --- |
| 139.2% | 170% | 0.0009 µM | 217.8% | 0.0034 µM | 57.65% | – | – | – | O=C(CCCc1ccc(O)cc1)CC(O)c1ccccc1 (single isomer, unassigned) [Compound 34a, 1-Hydroxy-6-(4-hydroxy-phenyl)-1-phenyl-hexan-3-one] |
| 140.0% | – | 0.00213 µM | 92.02% | 0.0105 µM | 18.67% | – | – | ERβ receptor activation relative to 10 nM E2 corresponding 100 (ERβ [2]; Table 1, sample concentration 10 μM, 24 hours, mean of at least three independent transfections, SEM typically <15%): 155.3% | O=C(CCCc1ccc(O)cc1)CC(O)c1ccccc1 (single isomer, unassigned) [Compound 34b, 1-Hydroxy-6-(4-hydroxy-phenyl)-1-phenyl-hexan-3-one] |
| – | – | 1.7 µM | 0.115% | 1.09 µM | 0.180% | 91.4% | – | ERβ in vitro activity (receptor activation relative to 10 nM E2) (ERβ [2]; 24 hours): 147.3% | O=C(CCCc1ccccc1)CC(O)c1ccccc1 (single isomer, unassigned) [Compound 59a, 1-Hydroxy-1,6-diphenyl-hexan-3-one] |
| – | – | 2.17 µM | 0.090% | 11 µM | 0.018% | 59.3% | – | ERβ in vitro activity (receptor activation relative to 10 nM E2) (ERβ [2]; 24 hours): 28.2% | O=C(CCCc1ccccc1)CC(O)c1ccccc1 (single isomer, unassigned) [Compound 59b, 1-Hydroxy-1,6-diphenyl-hexan-3-one] |
| 55.0% | 107% | 7.9 µM | 0.025% | 1.25 µM | 0.157% | – | – | – | O=C(CCc1ccc(O)cc1)CC(O)Cc1ccccc1 (stereo not shown) [Compound 31ab, 5-Hydroxy-1-(4-hydroxy-phenyl)-6-phenyl-hexan-3-one] |
| 83.3% | 15.1% | 0.81 µM | 0.242% | 2.05 µM | 0.096% | – | – | – | CC(O)(CC(=O)CCCc1ccccc1)c1ccccc1 (stereo not shown) [Compound 36ab, 6-Hydroxy-1,6-diphenyl-heptan-4-one] |
| 105.2% | 82.3% | 0.105 µM | 1.867% | 1.08 µM | 0.181% | – | – | – | O=C(CCCc1ccc(O)cc1)CC(O)Cc1ccccc1 (stereo not shown) [Compound 40ab, 2-Hydroxy-7-(4-hydroxy-phenyl)-1-phenyl-heptan-4-one] |
| 9.9% | 1.3% | – | – | – | – | – | – | – | COC(CC(=O)CCc1ccccc1)Cc1ccccc1 (stereo not shown) [Compound 46ab, 5-Methoxy-1,6-diphenyl-hexan-3-one] |
| 28.5% | 4% | – | – | – | – | – | – | – | COc1ccc(CC(CC(=O)CCc2ccccc2)OC)cc1 (stereo not shown) [Compound 47ab, 5-Methoxy-6-(4-methoxyphenyl)-1-phenyl-hexan-3-one] |
| 33.1% | 11.2% | – | – | – | – | – | – | – | COC(CC(=O)CCc1ccccc1)Cc1ccc(F)cc1 (stereo not shown) [Compound 48ab, 5-Methoxy-6-(4-fluorophenyl)-1-phenyl-hexan-3-one] |
| 35.5% | 2% | – | – | – | – | – | – | – | COC(CC(=O)CCc1ccccc1)Cc1cccc2ccccc12 (stereo not shown) [Compound 49ab, 5-Methoxy-6-naphthalen-1-yl-1-phenyl-hexan-3-one] |
| 30.4% | 12.4% | – | – | – | – | – | – | – | COC(CC(=O)CCc1ccccc1)Cc1ccc2ccccc2c1 (stereo not shown) [Compound 50ab, 5-Methoxy-6-naphthalen-2-yl-1-phenyl-hexan-3-one] |
| 24.5% | 30.4% | – | – | – | – | – | – | – | COC(CC(=O)CCCc1ccccc1)Cc1ccccc1 (stereo not shown) [Compound 51ab, 2-Methoxy-1,7-diphenyl-heptan-4-one] |
| 3.1% | -14.6% | – | – | – | – | – | – | – | COC(CCc1ccccc1)CC(=O)CCCc1ccccc1 (stereo not shown) [Compound 52ab, 3-Methoxy-1,8-diphenyl-octan-5-one] |
| – | – | – | – | – | – | 5.3% | 16.9% | – | O=C(CC(O)Cc1ccccc1)c1ccccc1 (stereo not shown) [Compound 53ab, 3-Hydroxy-1,4-diphenyl-butan-1-one] |
| – | – | – | – | – | – | 0.8% | 1.6% | – | O=C(Cc1ccccc1)CC(O)c1ccccc1 (stereo not shown) [Compound 55ab, 4-Hydroxy-1,4-diphenyl-butan-2-one] |
| – | – | – | – | – | – | 52.1% | 38.4% | – | CC(O)(CC(=O)CCc1ccccc1)c1ccccc1 (stereo not shown) [Compound 57ab, 5-Hydroxy-1,5-diphenyl-hexan-3-one] |
| – | – | – | – | – | – | 12.8% | 0.4% | – | O=C(CCc1ccccc1)CC(O)Cc1ccccc1 (stereo not shown) [Compound 58ab, 5-Hydroxy-1,6-diphenyl-hexan-3-one] |
| – | – | – | – | – | – | 83.3% | 15.1% | – | CC(O)(CC(=O)CCCc1ccccc1)c1ccccc1 (stereo not shown) [Compound 60ab, 6-Hydroxy-1,6-diphenyl-heptan-4-one] |
| – | – | – | – | – | – | 0.3% | 18.4% | – | COC(CC(=O)c1ccccc1)Cc1ccccc1 (stereo not shown) [Compound 61ab, 3-Methoxy-1,4-diphenyl-butan-1-one] |
| – | – | – | – | – | – | 38.1% | 28.8% | – | COC(CCc1ccccc1)CC(=O)c1ccccc1 (stereo not shown) [Compound 62ab, 3-Methoxy-1,5-diphenyl-pentan-1-one] |
